EC50 data for seven compounds are collected here from patent US20250145596A1, “HETEROCYCLIC GLP-1 AGONISTS” (Gasherbrum Bio, Inc., priority 2022, published 2025).

For this assay, the target named is T1, GLP-1 Receptor (Homo sapiens, UniProt P43220).
T1 construct: host or cells: HEK293/CRE-Luc
The assay is described as follows: GLP-1R agonist cAMP stimulation assay. Type of assay: cell-based. As to conditions: HEK293/CRE-Luc cell line stably expressing the GLP-1 Receptor; 30 min at 37° C.; cAMP dynamic 2 Kit. The method in brief:
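HEK293 cells stably expressing GLP-1R with CRE-luciferase, 1000 cells/well in DPBS with 0.5 mM IBMX and 0.1% BSA, exposed to compound (½-log dilutions) for 30 min at 37 °C. cAMP measured by HTRF (665/615 nm) after 1 h at room temperature; % activity scaled between vehicle and maximal control.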

T1 sequence (P43220 24-463): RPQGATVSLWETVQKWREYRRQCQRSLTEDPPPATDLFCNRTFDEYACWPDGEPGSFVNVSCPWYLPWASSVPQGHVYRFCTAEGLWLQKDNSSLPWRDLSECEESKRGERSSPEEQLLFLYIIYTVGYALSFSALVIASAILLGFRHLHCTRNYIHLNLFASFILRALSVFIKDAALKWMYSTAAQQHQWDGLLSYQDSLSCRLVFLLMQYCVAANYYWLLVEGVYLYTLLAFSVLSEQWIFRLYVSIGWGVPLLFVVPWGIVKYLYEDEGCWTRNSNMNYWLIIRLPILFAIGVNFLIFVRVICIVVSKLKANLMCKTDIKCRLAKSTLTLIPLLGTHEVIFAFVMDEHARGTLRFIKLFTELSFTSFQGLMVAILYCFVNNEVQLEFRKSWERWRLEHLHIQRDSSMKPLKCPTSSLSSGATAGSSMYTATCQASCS

The compound `N#CC1(Cc2cc(-c3nnc(C(F)(F)F)[nH]3)cnc2CN2CCC(c3cccc4c3OC(c3ccc(Cl)cc3F)CO4)CC2)CC1` (stereo not shown) [Example 38, 1-{[2-({4-[3-(4-chloro-2-fluorophenyl)-2,3-dihydro-1,4-benzodioxin-5-yl]piperidin-1-yl}methyl)-5-[5-(trifluoromethyl)-4H-1,2,4-triazol-3-yl]pyridin-3-yl]methyl}cyclopropane-1-carbonitrile] yielded an EC50 of less than 1 nM. On to `CS(=O)(=O)Cc1cc(-c2nnc(C(F)(F)F)[nH]2)cnc1CN1CCC(c2cccc(OCc3ccc(Cl)cc3F)n2)CC1` [Example 57, 2-[(4-{6-[(4-chloro-2-fluorophenyl)methoxy]pyridin-2-yl}piperidin-1-yl)methyl]-3-(methanesulfonylmethyl)-5-[5-(trifluoromethyl)-4H-1,2,4-triazol-3-yl]pyridine], for which the EC50 lay in the range of 1 to 100 nM.

Compound `N#CC1(Cc2cc(-c3nnc(C(F)(F)F)[nH]3)cnc2CN2CCC(c3ccc(F)c(OCc4ccc(Cl)cc4F)n3)CC2)CC1` [Example 33, 1-((2-((4-(6-((4-chloro-2-fluorobenzyl)oxy)-5-fluoropyridin-2-yl)piperidin-1-yl)methyl)-5-(5-(trifluoromethyl)-4H-1,2,4-triazol-3-yl)pyridin-3-yl)methyl)cyclopropane-1-carbonitrile] had a half-maximal effective concentration (EC50) of less than 1 nM. As for `C[C@]1(c2ccc(Cl)cn2)Oc2cccc(C3CCN(Cc4ncc(-c5nnc(C(F)(F)F)[nH]5)cc4CC4(C#N)CC4)CC3F)c2O1` (single isomer, unassigned) [Example 25], the EC50 was less than 1 nM.

The compound `N#CC1(Cc2cc(-c3nnc(C(F)(F)F)[nH]3)cnc2CN2CCC(c3cccc4c3OC[C@@H](c3ccc(Cl)cc3)O4)CC2)CC1` [Example 39, 1-{[2-({4-[(2R)-2-(4-chlorophenyl)-2,3-dihydro-1,4-benzodioxin-5-yl]piperidin-1-yl}methyl)-5-[5-(trifluoromethyl)-4H-1,2,4-triazol-3-yl]pyridin-3-yl]methyl}cyclopropane-1-carbonitrile] displayed an EC50 of 1 to 100 nM. Under `C[C@]1(c2ccc(Cl)cc2F)Oc2cccc(C3CCN(Cc4ncc(C(=O)O)cc4CC4(C#N)CC4)CC3)c2O1` [Example 19, (S)-6-((4-(2-(4-chloro-2-fluorophenyl)-2-methylbenzo[d][1,3]dioxol-4-yl)piperidin-1-yl)methyl)-5-((1-cyanocyclopropyl)methyl)nicotinic acid] stands 1 to 100 nM; under `CC1(c2ccc(Cl)cc2F)Oc2ccc(F)c(C3CCN(Cc4ncc(-c5nnc(C(F)(F)F)[nH]5)cc4CC4(C#N)CC4)CC3)c2O1` (stereo not shown) [Example 15, 1-{[2-({4-[2-(4-Chloro-2-fluorophenyl)-5-fluoro-2-methyl-2H-1,3-benzodioxol-4-yl]piperidin-1-yl}methyl)-5-[5-(trifluoromethyl)-4H-1,2,4-triazol-3-yl]pyridin-3-yl]methyl}cyclopropane-1-carbonitrile], less than 1 nM.

The EC50 is the midpoint of the concentration-response curve. High values mean a less potent agent, low ones a more potent agent.
